Series [1] can be described thus: Oral bioavailability of solutions in non-fasted rats. To be noted: rat, in vivo, oral solution, read-out: Rat % F. As to the method: Early bioavailability studies in rat were conducted with solutions of the compounds of the invention. Compounds were delivered via oral administration as a solution in an appropriate excipient. Example formulations include, but are not limited to: 4% DMSO, 10% Solutol HS-15, and 86% water or 4% DMSO, 5% Tween, 25% Cremophor EL. Target concentrations were typically 1 mg/mL, and administered via oral gavage to non-fasted rats. The absolute bioavailability is the dose-corrected area under the curve (AUC) non-intravenous divided by the dose corrected AUC intravenous. The formula for calculating F for a drug administered by the oral route (PO) is given below:
% F=AUC PO×Dose IV/AUC IV×Dose PO

The nature of series [2]: Kinetic solubility in buffered solutions. It is filed as physicochemical. To be noted: aqueous buffer, kinetic from dmso stock, 24 hours ambient. The procedure: The solubilities of the compounds of Formula (I) were tested using the procedure outlined in Kerns, E. H., J Pharm Sci (2001) 90:1838-1858, incorporated herein by reference and described below. Data for solubility was obtained by this method for compounds of Formula (I) and included in Table 3. The chromatographic data was performed by HPLC using an Xbridge Shield RP18 column with the following column dimensions: 4.6×30 mm, 3.5 μm. The mobile phase consisted of deionized water (MPA) with trifluoroacetic acid added in at 0.1% (v/v) (MPC) and HPLC-grade acetonitrile (MPB). The mobile phase flow rate was 2.5 mL/min with the column and sampling operating at ambient temperature. UV detection was set to 280 nm.
Samples for analysis of the compounds of Formula (I) were prepared at a % v/v=1/19 (i.e., 10 μL of the stock solution into 190 μL of buffer) by spiking stock solutions of the compounds of Formula (I) into buffered solutions. Three buffered solution systems were prepared: pH 4.0 prepared from 50 mM sodium acetate in a 5% dextrose in water solution, pH 7.4 prepared from 75 mM sodium phosphate in a 1:1 ratio of sterilized water for injection to a 5% dextrose in water solution, and pH 9.0 prepared from 50 mM sodium bicarbonate in a 1:2 ratio of sterilized water for injection to a 5% dextrose in water solution. The samples were incubated on a microplate shaker at 300 rpm for 24 hours at ambient temperature. Following incubation, the samples were centrifuged for five minutes at 13 k rpm at ambient temperature. The resulting supernantant was extracted for HPLC analysis.

For another series, the target named is T1, CYP1A2 (Homo sapiens, UniProt P05177).
T1 sequence (P05177 1-516): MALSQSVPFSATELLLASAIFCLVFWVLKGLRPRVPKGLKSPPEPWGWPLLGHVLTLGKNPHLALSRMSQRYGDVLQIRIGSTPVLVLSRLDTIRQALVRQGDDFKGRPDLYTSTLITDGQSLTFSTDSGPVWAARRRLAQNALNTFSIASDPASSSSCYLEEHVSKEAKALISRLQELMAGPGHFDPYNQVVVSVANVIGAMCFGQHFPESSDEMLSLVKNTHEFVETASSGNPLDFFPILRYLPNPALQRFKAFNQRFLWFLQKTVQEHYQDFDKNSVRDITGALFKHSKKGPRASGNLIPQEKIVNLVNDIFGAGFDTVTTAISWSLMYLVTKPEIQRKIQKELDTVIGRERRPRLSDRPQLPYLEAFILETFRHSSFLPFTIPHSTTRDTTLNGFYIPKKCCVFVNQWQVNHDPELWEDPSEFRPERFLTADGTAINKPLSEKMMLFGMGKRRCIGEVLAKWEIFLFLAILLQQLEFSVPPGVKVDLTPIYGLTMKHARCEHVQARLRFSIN
Nature of the series: P450 Cyp-inhibition luminescent assay. It is filed as biochemical. The procedure:
(§1) The ability of Compound 2 to inhibit human CYP450 enzymes was evaluated. Compound 1 and Compound 2 were tested in standard P450 Cyp-inhibition luminescent assay.

For a further series, the target named is CYP3A4 (Homo sapiens, UniProt P08684). Nature of the series: P450 Cyp-inhibition luminescent assay. It is filed as biochemical. The procedure: as §1
A further series deals with CYP2C19 (Homo sapiens, UniProt P33261). In words: P450 Cyp-inhibition luminescent assay. The series is classed as biochemical. As to the method: as §1
Series [3] concerns the target T2, CYP2D6 (Homo sapiens, UniProt P10635). Nature of the series: P450 Cyp-inhibition luminescent assay. It is filed as biochemical. The procedure:
as §1

Another series has as its target CYP2C9 (Homo sapiens, UniProt P11712). Nature of the series: P450 Cyp-inhibition luminescent assay. It is filed as biochemical. The procedure:
as §1

Series [4] has as its system CFA-induced cold hyperalgesia model in the rat. In words: CFA-induced cold hypersensitivity, paw withdrawal latency. The series is classed as in vivo. To be noted: for Pre-RX PWL / Pre-Rx PWL: before dosing. The procedure:
Embodiments of the invention may be efficacious in the treatment of inflammatory pain. Compound 2 tested by the CFA-induced pain test method. […]
Briefly, the hind paw is sensitized to cold temperature (allodynic), by administering 0.1 mL of Complete Freund's Adjuvant (CFA) is administered to the right hind paw. Three days later, the time taken for the animal to lift its CFA-injected paw is recorded compared to its un-injected normal left hind paw. […] To avoid tissue damage the maximum cut-off time is 5 minutes. Animals that are allodynic (average PWL to the first three pain behaviors <150 seconds for the CFA-injected hind paw: ˜≧50% difference between the normal and CFA-injected paw) are included in the study and subsequently randomized across treatment groups. The following day, the animals are dosed under blinded conditions. Following the 1-2 hour pre-treatment time, the post-dose PWL readings are again taken. The efficacy of the drug treatment is assessed by comparing the PWL in the drug treatment animals to those animals that receive the vehicle.
Compound 4 was also tested using the methods disclosed.
In a further study, compounds of the invention were tested for efficacy at low doses for the treatment of inflammatory pain. Using the methods disclosed in above, Compound 2 was dosed at ranges of 0.1 to 1 mg/kg PO. The positive comparator TRPA1 antagonist Compound A was also tested at a dose of 150 mg/kg IP. […] Oral drug delivery was accomplished using a 20-gauge 1½″ oral gavage needle and a 5 cc syringe. Fed rats received a single oral gavage of Compound 2 at 0.03, 0.1, 0.3, or 1 mg/kg or Vehicle, 2 hours prior to testing

For series [5], the target named is T2, CYP2D6. Nature of the series: in vitro. To be noted: probe Dextromethorphan.
[6] abbreviates: sodium acetate buffer, pH 4.0, 50 mM sodium acetate, read-out: pH 4.0 solubility.
The mark [7] stands for this setting: sodium bicarbonate buffer, pH 9.0, 50 mM sodium bicarbonate, read-out: pH 9.0 solubility.
Setting [8] is: sodium phosphate buffer, pH 7.4, 75 mM sodium phosphate, read-out: pH 7.4 solubility.
[9] abbreviates: 1 mg/kg PO, suspension in 0.5% methylcellulose.

Converted amounts (≈) assume the structure as drawn. Read-outs that look alike come from different tables or passages of the source.

T2 sequence (P10635 whole entry): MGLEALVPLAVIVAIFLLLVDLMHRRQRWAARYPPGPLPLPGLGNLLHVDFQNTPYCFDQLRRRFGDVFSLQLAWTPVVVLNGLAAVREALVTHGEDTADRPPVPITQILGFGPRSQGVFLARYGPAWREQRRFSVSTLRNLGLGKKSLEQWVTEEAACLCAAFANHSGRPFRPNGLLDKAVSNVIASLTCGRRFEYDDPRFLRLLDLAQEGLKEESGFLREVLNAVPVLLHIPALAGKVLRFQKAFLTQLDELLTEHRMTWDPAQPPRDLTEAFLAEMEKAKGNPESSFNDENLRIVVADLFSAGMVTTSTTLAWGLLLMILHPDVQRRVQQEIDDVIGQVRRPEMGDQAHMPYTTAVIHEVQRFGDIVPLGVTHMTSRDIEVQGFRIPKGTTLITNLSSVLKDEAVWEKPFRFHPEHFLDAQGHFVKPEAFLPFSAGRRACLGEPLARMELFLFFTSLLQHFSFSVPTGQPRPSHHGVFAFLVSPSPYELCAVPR
CYP2C9, sequence (P11712 whole entry): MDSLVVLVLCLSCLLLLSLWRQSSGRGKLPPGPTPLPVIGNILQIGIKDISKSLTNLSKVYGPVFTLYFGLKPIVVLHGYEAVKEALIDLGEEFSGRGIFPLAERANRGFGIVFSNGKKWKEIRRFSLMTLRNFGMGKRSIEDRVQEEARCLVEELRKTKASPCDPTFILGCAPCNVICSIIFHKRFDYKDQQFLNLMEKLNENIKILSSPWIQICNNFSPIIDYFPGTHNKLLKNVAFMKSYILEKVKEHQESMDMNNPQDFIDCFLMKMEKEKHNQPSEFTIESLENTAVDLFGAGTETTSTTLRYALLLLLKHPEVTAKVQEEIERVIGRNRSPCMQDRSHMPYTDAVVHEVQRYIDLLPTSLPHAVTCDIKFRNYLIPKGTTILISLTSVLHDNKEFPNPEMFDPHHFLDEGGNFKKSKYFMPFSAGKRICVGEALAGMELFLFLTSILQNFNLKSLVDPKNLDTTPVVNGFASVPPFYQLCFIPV
CYP2C19, sequence (P33261 whole entry): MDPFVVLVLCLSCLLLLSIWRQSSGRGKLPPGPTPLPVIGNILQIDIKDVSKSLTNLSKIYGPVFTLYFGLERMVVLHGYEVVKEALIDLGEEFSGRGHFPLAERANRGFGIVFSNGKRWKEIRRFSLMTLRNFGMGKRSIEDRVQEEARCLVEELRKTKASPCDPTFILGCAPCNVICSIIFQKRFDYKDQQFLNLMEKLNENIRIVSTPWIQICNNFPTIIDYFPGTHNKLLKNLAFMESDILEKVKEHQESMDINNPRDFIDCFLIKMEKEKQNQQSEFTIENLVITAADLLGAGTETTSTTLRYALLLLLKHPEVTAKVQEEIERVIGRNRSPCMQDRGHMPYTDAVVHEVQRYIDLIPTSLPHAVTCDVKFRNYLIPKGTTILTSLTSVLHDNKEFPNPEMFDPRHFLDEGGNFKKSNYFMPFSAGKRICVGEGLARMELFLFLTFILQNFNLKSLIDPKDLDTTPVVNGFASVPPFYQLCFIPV
CYP3A4, sequence (P08684 whole entry): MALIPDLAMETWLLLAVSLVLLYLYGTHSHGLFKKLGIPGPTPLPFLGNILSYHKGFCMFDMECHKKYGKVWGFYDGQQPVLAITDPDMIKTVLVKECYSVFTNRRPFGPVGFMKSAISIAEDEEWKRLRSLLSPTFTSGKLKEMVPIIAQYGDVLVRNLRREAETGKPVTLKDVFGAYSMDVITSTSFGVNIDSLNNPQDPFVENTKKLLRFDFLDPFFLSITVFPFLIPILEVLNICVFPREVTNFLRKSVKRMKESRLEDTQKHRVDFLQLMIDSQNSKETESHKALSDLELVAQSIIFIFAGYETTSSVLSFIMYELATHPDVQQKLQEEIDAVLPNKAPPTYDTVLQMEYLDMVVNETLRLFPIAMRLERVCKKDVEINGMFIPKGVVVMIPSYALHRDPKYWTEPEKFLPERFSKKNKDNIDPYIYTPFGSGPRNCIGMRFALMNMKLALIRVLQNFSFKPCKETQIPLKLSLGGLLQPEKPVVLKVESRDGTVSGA

For `C[C@@H](C(=O)Nc1ccnc(-c2cnc(N3CCCC3(C)C)nc2)n1)n1cnc2c1c(=O)n(C)c(=O)n2C` [Compound 1, (S)-2-(1,3-dimethyl-2,6-dioxo-2,3-dihydro-1H-purin-7(6H)-yl)-N-(2′-(2,2-dimethylpyrrolidin-1-yl)-[2,5′-bipyrimidin]-4-yl)propanamide], the bioavailability in [1] turned out to be 46%. For the same compound, the solubility kinetic at 24 h was found to be 4 µg/mL (≈ 7.93 µM) in [2] (setting [6]), 2 µg/mL (≈ 3.96 µM) in [2] (setting [7]) and 3 µg/mL (≈ 5.95 µM) in [2] (setting [8]). The “CYP 1A2: % Inhibition” value on CYP1A2 is recorded as 4.2%. Moreover, the “CYP 3A4: % Inhibition” value on CYP3A4 is reported as 26.9%. For the same compound, the “CYP 2C19: % Inhibition” value at CYP2C19 is 45.9%. Also, on CYP2D6 [3], the “CYP 2D6: % Inhibition” value is 9%. Besides, the “CYP 2C9: % Inhibition” value on CYP2C9 was found to be 71.4%.

Take `C[C@@H](C(=O)Nc1ccnc(-c2cnc(N3CCC[C@H]3C(F)(F)F)nc2)n1)n1cnc2c1c(=O)n(C)c(=O)n2C` [Compound 2, (S)-2-(1,3-dimethyl-2,6-dioxo-2,3-dihydro-1H-purin-7(6H)-yl)-N-(2′-((S)-2-(trifluoromethyl)pyrrolidin-1-yl)-[2,5′-bipyrimidin]-4-yl)propanamide]: the bioavailability in [1] was 100%. For the same compound, the solubility kinetic at 24 h in series [2] (setting [6]) turned out to be 85 µg/mL (≈ 156 µM); in series [2] (setting [7]), 69 µg/mL (≈ 127 µM); in series [2] (setting [8]), 71 µg/mL (≈ 130 µM). In addition, the “reversal of CFA-induced cold hypersensitivity” value in [4] (0.03 mg/kg PO) is “did not exert a statistically significant effect”; in series [4] (0.1, 0.3, and 1 mg/kg PO), “significant reversal of CFA-induced cold hypersensitivity”. Further, the “PWL Change” value amounted to 14.8 s in series [4] (0.03 mpk PO, 2 hours prior to testing); 43.1 s in series [4] (0.1 mpk PO, 2 hours prior to testing); 74.1 s in series [4] (0.3 mpk PO, 2 hours prior to testing); 104.8 s in series [4] (1 mpk PO, 2 hours prior to testing). For the same compound, the “Post RX PWL” value in [4] (0.3 mpk PO) turned out to be 197.7 s; in [4] (1 mpk PO) it was 243.0 s; in series [4] (3 mpk PO) it was 249.6 s; in [4] (10 mpk PO) it was 237.3 s. For the same compound, the “Pre-RX PWL” value in series [4] (0.3 mpk PO group) is 104.0 s; in series [4] (1 mpk PO group), 103.7 s; in series [4] (3 mpk PO group) it was 103.9 s; in series [4] (10 mpk PO group), 104.0 s. The “effect on cold hypersensitivity” value in series [4] (oral doses of 0.3 to 10 mg/kg) is reported as “attenuated cold hypersensitivity”. In addition, the inhibition (usually the share of the control response that was lost under treatment) at 10 µM against CYP2D6 [5] came out at 9.5%. For the same compound, the “CYP 1A2: % Inhibition” value at CYP1A2 is 0.299%. In addition, the “CYP 3A4: % Inhibition” value at CYP3A4 is listed as 2.7%. Moreover, at CYP2C19, the “CYP 2C19: % Inhibition” value is 29.1%. The “CYP 2D6: % Inhibition” value at CYP2D6 [3] came out at 6.3%. Further, the “CYP 2C9: % Inhibition” value on CYP2C9 is given as 39.6%.

For the compound `C[C@@H](C(=O)Nc1ccnc(-c2cnc(N3CCC[C@@H]3C(F)(F)F)nc2)n1)n1cnc2c1c(=O)n(C)c(=O)n2C` [Compound 4, (S)-2-(1,3-dimethyl-2,6-dioxo-2,3-dihydro-1H-purin-7(6H)-yl)-N-(2′-((R)-2-(trifluoromethyl)pyrrolidin-1-yl)-[2,5′-bipyrimidin]-4-yl)propanamide], the bioavailability in [1] was found to be 100%. Besides, the “Pre-Rx PWL” value in series [4] (1 mg/kg PO group, suspension in 0.5% methylcellulose) was found to be 101.7 s; in series [4] (3 mg/kg PO group, suspension), 101.1 s; in series [4] (10 mg/kg PO group, suspension), 101.5 s. In addition, the “PWL Change” value came out at 148.6 s in series [4] (setting [9]); 140.9 s in [4] (3 mg/kg PO, suspension); 132.6 s in series [4] (10 mg/kg PO, suspension). Besides, the “Post-Rx PWL” value in series [4] (setting [9]) was 250.3 s; in [4] (3 mg/kg PO, suspension), 242.1 s; in series [4] (10 mg/kg PO, suspension), 234.1 s.

The record behind these values is US20170050966A1, “INHIBITING THE TRANSIENT RECEPTOR POTENTIAL A1 ION CHANNEL” (HYDRA BIOSCIENCES, INC., priority 2014, published 2017).
